Here are results for one compound from patent US20220125772A1, “A2A ANTAGONISTS AS COGNITION AND MOTOR FUNCTION ENHANCERS” (Biotie Therapies, Inc., priority 2010, published 2022).

Structures are written as SMILES.

Common to all, as to assay type: in vivo, human
The subject of assay [1] is Parkinson's disease (PD) patients. The assay is described as follows: Motor assessments (tapping speed, UPDRS item) in Parkinson's disease patients, double-blind crossover study. The source says:
(§1) Parkinson's disease (PD) patients participated in a double-blind, crossover study to assess the effect of co-administration of an A2a antagonist with a dopamine precursor on cognition and motor function. The A2a antagonist was 4-hydroxy-4-methyl-piperidine-1-carboxylic acid-(4-methoxy-7-morpholin-4-yl-benzothiazol-2-yl)-amide and the dopamine precursor was levodopa.
(§2) The patients were randomly allocated to 1 week of 4-hydroxy-4-methyl-piperidine-1-carboxylic acid-(4-methoxy-7-morpholin-4-yl-benzothiazol-2-yl)-amide and levodopa, 1 week washout (levodopa only), then 1 week placebo plus levodopa or the reverse order. Optimal levodopa doses were established for each patient according to normal clinical practice. Active drug was administered at 60 mg bid (N=14) or 20 mg bid (N=12) of 4-hydroxy-4-methyl-piperidine-1-carboxylic acid-(4-methoxy-7-morpholin-4-yl-benzothiazol-2-yl)-amide. At the end of each treatment week, participants completed motor assessments, a Continuous Performance Test (CPT), a Go/No-Go (GNG) Test, and a 2-Back Test after overnight withdrawal of levodopa and again after intravenous (IV) infusion of a suboptimal level of levodopa.

For assay [2] the test system is unchanged. The assay is described as follows: Participant-reported sleepiness in Parkinson's disease patients, double-blind crossover study. The settings on record: compared to placebo.
Text: as §1, §2

For assay [3] the test system is unchanged. The assay is described as follows: 2-Back Test in Parkinson's disease patients, double-blind crossover study. The conditions noted are these: either dose (60 mg bid, 20 mg bid) with levodopa; all p-values>0.05.
Text: as §1, §2

Assay [4] has the same test system. The assay is described as follows: Continuous Performance Test (CPT) in Parkinson's disease patients, double-blind crossover study. The settings on record: either dose (60 mg bid, 20 mg bid) with levodopa; all p-values>0.05.
Text: (§3) Continuous performance testing, in various forms, has become a standard clinical procedure. Generally speaking, continuous performance testing evaluates a subject's visual attention by displaying a series of visual stimuli, to which the subject is instructed to respond. In a typical case, often referred to as a “Go—No Go” test, the stimuli are of two types (the “Go” and “No Go” stimuli); the subject is instructed to respond only to the “Go” stimulus, and not to respond or “pass” when presented with the “No Go” stimulus. Data collected for each stimulus presented consists of the type of the stimulus; whether or not the subjects responded; and, if so, how long they took to respond. The continuous performance test has been in use since the 1950s.
as §1
The patients were randomly allocated to 1 week of 4-hydroxy-4-methyl-piperidine-1-carboxylic acid-(4-methoxy-7-morpholin-4-yl-benzothiazol-2-yl)-amide and levodopa, 1 week washout (levodopa only), then 1 week placebo plus levodopa or the reverse order. […]

For assay [5] the test system is unchanged. The assay is described as follows: Go/No-Go (GNG) Test in Parkinson's disease patients, double-blind crossover study. The conditions noted are these: for GNG reaction times: vs placebo plus levodopa.
Text: as §3, §1, §2
Subjects monitored a visual display while single uppercase letters were presented one at a time interspersed with the number “5”. Participants were instructed to push a target response button at the occurrence of every letter (i.e., a “Go” response) but to withhold a response for the number 5 (i.e., a “No-Go” response). Target frequency was manipulated in a blocked fashion, with two levels of target frequency (83% letters: 17% “5”s; 50% letters: 50% “5”s).

Setting [6] is: FIG. 1 legend, A2a antagonist compared with placebo, dose not stated.

Take `COc1ccc(N2CCOCC2)c2sc(NC(=O)N3CCC(C)(O)CC3)nc12` [4-hydroxy-4-methyl-piperidine-1-carboxylic acid-(4-methoxy-7-morpholin-4-yl-benzothiazol-2-yl)-amide]: the “rapidly alternating hand movements item from the UPDRS” value in assay [1] (60 mg bid and levodopa, p=0.03) is on record as “significant”. In addition, the tapping speed entry in assay [1] (60 mg bid, before and after levodopa, p: 0.05) is “significant motor benefit”. Further, the reported sleepiness result in assay [2] (20 mg bid, p>0.05) is given as “no significant difference”; in assay [2] (60 mg bid, before and after levodopa, p<0.05), “less sleepiness”. Also, in assay [3], the “effect on the 2-Back test” value was “no significant effects”. Moreover, in assay [4], the “effect on the CPT test” value was “no significant effects”. Further, the GNG reaction times result in assay [5] (20 mg bid for 1 week with levodopa, p=0.05, N=12) is “faster GNG reaction times”; in assay [5] (60 mg bid for 1 week with levodopa, p<0.01, N=14), “faster GNG reaction times”. The GNG accuracy result in assay [5] (60 mg bid and 20 mg bid with levodopa, ps>0.25) is “without reduced accuracy”. The “Go/No-Go task mistakes (FIG. 1)” value in assay [5] (setting [6]) is “fewer mistakes”. Moreover, the “Go/No-Go task reaction time (FIG. 1)” value in assay [5] (setting [6]) is “reaction times are faster”.
